The results in this text go back to patent publication US20170360805A1, “MOTOR-ASSOCIATED NEURODEGENERATIVE DISEASE AND METHODS OF TREATMENT” (priority 2016, published 2017).

One assay relates to NSC-34 cells. Kind of assay: Glutamate excitotoxicity model, MTT cell viability, NSC-34 cells. It counts as cell-based, mouse. The conditions noted are these: 24 hours, 0.01-10 μM, FIG. 7A. The procedure: (§1) FIG. 7A-FIG. 7B illustrate the effects of 15d-PGJ2 at four different concentrations (0.01, 0.1, 1, and 10 μM) on glutamate induced neurotoxicity in NSC-34 cells (left-FIG. 7A) and primary rat cortical neurons (right-FIG. 7B). Cell viability was determined by the MTT assay. Data are shown as mean+SEM (n=6 or 12) as percentage of vehicle control (VC). Statistical significance is indicated by *<0.05 and **<0.01 as determined by One-Way ANOVA followed by Dunnett's Multiple Comparison Test, in comparison to glutamate lesion (L or Glu).
Viability of cultures was determined by the MTT assay using a plate-reader (570 nm). This assay allows the measurement of the mitochondrial dehydrogenase activity which reduces yellow MTT to dark blue formazan crystals. Since this reaction was catalyzed in living cells, this assay was used for the determination of cell viability. MTT solution was added to each well in a final concentration of 0.5 mg/ml. After 2 hours the MTT containing medium was aspired. Cells were lysed in 3% SDS and the formazan crystals were dissolved in isopropanol/HCl. Optical density was measured with a plate-reader at wavelength 570 nm. Cell survival rate was expressed as optical density (OD). Values were calculated as percent of control values (vehicle control).
15d-PGJ2 was tested in a glutamate excitotoxicity model, a model of ALS. […]

The test system of assay [1] is primary rat cortical neurons. Briefly: Glutamate excitotoxicity model, MTT cell viability, primary rat cortical neurons. It counts as cell-based. To be noted: 24 hours, 0.01-10 μM, FIG. 7B. The method, then: as §1
(§2) Primary cortical neurons were prepared from time mated Sprague Dawley rats. Animals were sacrificed and embryos were dissected in Calcium and Magnesium free Hanks Balanced Salt Solution (CMF-HBSS) containing 15 mM HEPES and 10 mM NaHCO3, pH 7.2. Embryos were decapitated, skin and skull gently removed and cortical hemispheres were separated. […] Cells were counted in a hemacytometer and 4×10^4 cells per well were seeded on poly-D-lysine pre-coated 96-well plates. […]
Viability of cultures was determined by the MTT assay using a plate-reader (570 nm). […] Optical density was measured with a plate-reader at wavelength 570 nm. Cell survival rate was expressed as optical density (OD). Values were calculated as percent of control values (vehicle control). […]

The subject of the next assay is M3 network genes. Briefly: Validation of M3 network activation by RNA sequencing. It counts as cell-based. The conditions noted are these: 1 μM, primary rat cortical neurons, no glutamate lesion, FIG. 5. The procedure:
Bioinformatics predictions of M3 network activation from isoflupredone was validated in naïve neuronal cells (primary rat cortical neurons).
In parallel, 5 different test items and 2 reference items at 1 concentration each were applied to primary rat cortical neurons from […] of Sprague Dawley rats. The compounds were incubated for 8 days. […] Cell viability was determined by MTT and RNA was isolated. A number of ≧3 technical replicates were used.
Test item 1: isoflupredone (1 micromolar)
as §2
Messenger RNA was extracted from the cells and sequencing libraries were prepared using the TruSeq kit and poly-A selection. The resulting libraries were sequenced at a depth of 30 million reads per sample using single-ended 75 bp reads.

The subject of assay [2] is TDP43 stress granule formation of U2OS cells expressing GFP-labeled human TDP43. Kind of assay: TDP43 stress granule assay (arsenite challenge, fluorescence imaging). The conditions noted are these: Example 2, FIG. 4; 0.01, 0.1, 1 and 10 μM, 24 h pre-incubation, sodium arsenite 250 μM 120 min; Student's t Test vs arsenite control. It counts as cell-based.

With `CCCCC/C=C\C=C1\C(=O)C=CC1C/C=C\CCCC(=O)O` (centres unmarked) [15d-PGJ2, 15-Deoxy-Δ12,14-prostaglandin J2], the “effect on glutamate induced neurotoxicity (cell viability, MTT)” value (in the assay with NSC-34 cells; in assay [1]) was “neuroprotective effect” throughout.

As for `C[C@]12C=CC(=O)C=C1CC[C@H]1[C@@H]3CC[C@](O)(C(=O)CO)[C@@]3(C)C[C@H](O)[C@@]12F` [isoflupredone, (11β)-9-Fluoro-11,17,21-trihydroxypregna-1,4-diene-3,20-dione], the “activation of M3 network genes (pattern of activation)” value with M3 network genes is “largely up-regulation”. Moreover, the “aggregation of TDP43 compared to the negative control (mean number of fluorescent aggregates per cell)” value in assay [2] is recorded as “statistically significant decrease”.

Consider `CC(=O)[C@H]1CC[C@H]2[C@@H]3C[C@H](C)C4=CC(=O)CC[C@]4(C)[C@H]3[C@@H](O)C[C@]12C` [medrysone], for which the “aggregation of TDP43 compared to the negative control (mean number of fluorescent aggregates per cell)” value in assay [2] is listed as “did not show a statistically significant effect”.
